# Activity calls are given as the source filed them. The calls are words filed in the database; no cut-off is given here.
# What was measured:
# [1] = tested on: Candida albicans; assay: Antifungal activity against clinical FLC-resistant Candida albicans 602 measured after 24 hrs by microdilution method; format: functional
# [2] = tested on: Candida albicans; assay: In vivo antifungal activity against FLC-resistant Candida albicans ATCC 14053 infected in Balb/c mouse assessed as reduction in liver fungal load at 15 mg/kg, ig measured after 6 days; format: functional, organism-based; settings: time 6.0 day
# [3] = tested on: Candida albicans; assay: Antifungal activity against FLC-resistant Candida albicans ATCC 14053 measured after 24 hrs by microdilution method; format: functional
# [4] = tested on: Candida albicans; assay: Antifungal activity against clinical FLC-resistant Candida albicans 3511 measured after 24 hrs by microdilution method; format: functional
# [5] = tested on: Candida albicans; assay: Antifungal activity against clinical FLC-resistant Candida albicans 808 measured after 24 hrs by microdilution method; format: functional
# [6] = tested on: Candida albicans; assay: Antifungal activity against clinical FLC-resistant Candida albicans 4508 measured after 24 hrs by microdilution method; format: functional
# [7] = tested on: Candida albicans; assay: Synergistic antifungal activity against clinical FLC-resistant Candida albicans 187 assessed as fractional inhibitory concentration index measured after 24 hrs in presence of fluconazole by microdilution method; format: functional
# [8] = tested on: Candida albicans; assay: In vivo antifungal activity against FLC-resistant Candida albicans ATCC 14053 infected in Balb/c mouse assessed as restoration of normal kidney morphology at 15 mg/kg, ig measured after 6 days by H and E staining based histopathological analysis; format: functional, organism-based; settings: time 6.0 day
# [9] = Toxicity in Balb/c mouse infected with FLC-resistant Candida albicans ATCC 14053 assessed as weight loss at 15 mg/kg, ig measured daily for 6 days; format: organism-based; settings: in vivo, po, 144 h, time 6 day
# [10] = tested on: Candida albicans; assay: Antifungal activity against Clinical FLC-resistant Candida albicans 23 measured after 24 hrs by microdilution method; format: functional
# [11] = tested on: Candida albicans; assay: Synergistic antifungal activity against clinical FLC-resistant Candida albicans 799 measured after 24 hrs by microdilution method; format: functional
# [12] = tested on: Candida albicans; assay: Synergistic antifungal activity against FLC-resistant Candida albicans ATCC 14053 cultured in SD +10% FBS liquid medium assessed as inhibition of hyphal formation at 1 ug/ml measured after 2 hrs in presence of fluconazole by inverted microscopy; format: functional, organism-based; settings: dose 1.0 µg/ml
# [13] = tested on: Candida albicans; assay: In vivo antifungal activity against FLC-resistant Candida albicans ATCC 14053 infected in Balb/c mouse assessed as increase in organ coefficients of thymus at 7.5 to 15 mg/kg, ig measured after 6 days in presence of fluconazole; format: functional, organism-based; settings: dose 7.5-15 mg/kg, time 6.0 day
# [14] = tested on: Candida albicans; assay: In vivo antifungal activity against FLC-resistant Candida albicans ATCC 14053 infected in Balb/c mouse assessed as reduction in infiltration of inflammatory cells at 15 mg/kg, ig measured after 6 days by H and E staining based histopathological analysis; format: functional, organism-based; settings: time 6.0 day
# [15] = tested on: Candida albicans; assay: Antifungal activity against FLC-sensitive Candida albicans SC5314 measured after 24 hrs by microdilution method; format: functional
# [16] = tested on: Candida albicans; assay: Synergistic antifungal activity against clinical FLC-resistant Candida albicans 550 measured after 24 hrs by microdilution method; format: functional
# [17] = tested on: Candida albicans; assay: In vivo antifungal activity against FLC-resistant Candida albicans ATCC 14053 infected in Balb/c mouse assessed as reduction in lung fungal load at 7.5 to 15 mg/kg, ig measured after 6 days in presence of fluconazole; format: functional, organism-based; settings: dose 7.5-15 mg/kg, time 6.0 day
# [18] = tested on: Candida albicans; assay: Antifungal activity against FLC-resistant Candida albicans ATCC 14053 cultured in spider medium assessed as inhibition of hyphal formation at 1 ug/ml measured after 2 hrs by inverted microscopy; format: functional, organism-based; settings: dose 1.0 µg/ml
# [19] = tested on: Candida albicans; assay: Synergistic antifungal activity against clinical FLC-resistant Candida albicans 381 measured after 24 hrs by microdilution method; format: functional
# [20] = tested on: Candida albicans; assay: Synergistic antifungal activity against Clinical FLC-resistant Candida albicans 23 assessed as fractional inhibitory concentration index measured after 24 hrs in presence of fluconazole by microdilution method; format: functional
# [21] = tested on: Candida albicans; assay: Antifungal activity against clinical FLC-resistant Candida albicans 381 measured after 24 hrs by microdilution method; format: functional
# [22] = tested on: Candida albicans; assay: In vivo antifungal activity against FLC-resistant Candida albicans ATCC 14053 infected in Balb/c mouse assessed as restoration of normal lung morphology at 15 mg/kg, ig measured after 6 days by H and E staining based histopathological analysis; format: functional, organism-based; settings: time 6.0 day
# [23] = tested on: Candida albicans; assay: In vivo antifungal activity against FLC-resistant Candida albicans ATCC 14053 infected in Balb/c mouse assessed as reduction in severity of lesions in kidney at 15 mg/kg, ig measured after 6 days by H and E staining based histopathological analysis; format: functional, organism-based; settings: time 6.0 day
# [24] = tested on: Candida albicans; assay: Antifungal activity against clinical FLC-resistant Candida albicans 799 measured after 24 hrs by microdilution method; format: functional
# [25] = tested on: Candida albicans; assay: Synergistic antifungal activity against clinical FLC-resistant Candida albicans 799 assessed as fractional inhibitory concentration index measured after 24 hrs by microdilution method; format: functional
# [26] = tested on: Candida albicans; assay: Synergistic antifungal activity against FLC-resistant Candida albicans ATCC 14053 assessed as inhibition of rhodamine 6G efflux incubated for 4 hrs under shaking condition in presence of fluconazole by Rhodamine 6G staining based fluorescence assay; format: functional, organism-based
# [27] = tested on: Candida albicans; assay: Synergistic antifungal activity against FLC-resistant Candida albicans ATCC 14053 cultured in spider medium assessed as inhibition of hyphal formation at 1 ug/ml measured after 2 hrs in presence of fluconazole by inverted microscopy; format: functional, organism-based; settings: dose 1.0 µg/ml
# [28] = tested on: Candida albicans; assay: Synergistic antifungal activity against FLC-resistant Candida albicans ATCC 14053 assessed as fractional inhibitory concentration index measured after 24 hrs by microdilution method; format: functional
# [29] = tested on: Candida albicans; assay: Synergistic antifungal activity against FLC-resistant Candida albicans ATCC 10231 assessed as fractional inhibitory concentration index measured after 24 hrs by microdilution method; format: functional
# [30] = tested on: Candida albicans; assay: Synergistic antifungal activity against FLC-resistant Candida albicans ATCC 14053 cultured in spider medium assessed as inhibition of hyphal formation at 1 ug/ml measured after 4 to 8 hrs in presence of fluconazole and dibutyryl-cAMP by inverted microscopy; format: functional, organism-based; settings: dose 1.0 µg/ml, time 4-8 hrs
# [31] = tested on: Candida albicans; assay: Synergistic antifungal activity against clinical FLC-resistant Candida albicans 3816 measured after 24 hrs by microdilution method; format: functional
# [32] = tested on: Candida albicans; assay: Synergistic antifungal activity against clinical FLC-resistant Candida albicans 3816 assessed as fractional inhibitory concentration index measured after 24 hrs by microdilution method; format: functional
# [33] = tested on: Candida albicans; assay: Synergistic antifungal activity against clinical FLC-resistant Candida albicans 602 measured after 24 hrs by microdilution method; format: functional
# [34] = tested on: Candida albicans; assay: Synergistic antifungal activity against FLC-resistant Candida albicans ATCC 10231 measured after 24 hrs by microdilution method; format: functional
# [35] = tested on: Candida albicans; assay: Synergistic antifungal activity against FLC-sensitive Candida albicans SC5314 assessed as fractional inhibitory concentration index measured after 24 hrs in presence of fluconazole by microdilution method; format: functional
# [36] = tested on: Candida albicans; assay: Synergistic antifungal activity against clinical FLC-resistant Candida albicans 187 measured after 24 hrs in presence of fluconazole by microdilution method; format: functional
# [37] = tested on: Candida albicans; assay: Synergistic antifungal activity against clinical FLC-resistant Candida albicans 4574 assessed as fractional inhibitory concentration index measured after 24 hrs by microdilution method; format: functional
# [38] = tested on: Candida albicans; assay: Synergistic antifungal activity against FLC-resistant Candida albicans ATCC 14053 assessed as reduction in intracellular ATP level at 1 ug/ml measured after 16 to 18 hrs in presence of fluconazole by luminescence assay; format: functional, organism-based; settings: dose 1.0 µg/ml, time 16-18 hrs
# [39] = tested on: Candida albicans; assay: Synergistic antifungal activity against FLC-resistant Candida albicans ATCC 14053 measured over 48 hrs in presence of fluconazole by time-killing assay; format: functional, organism-based
smiles,measurement,setting,value
CN1CCN(c2nc3ccccc3cc2/C=C/C(=O)c2ccc(N3CCN(Cc4ccc(C(F)(F)F)cc4)CC3)cc2)CC1,MIC80,[1],> 40 µg/mL
same,Activity,[2],inactive
same,MIC80,[3],> 40 µg/mL
same,MIC80,[4],> 40 µg/mL
same,MIC80,[5],> 40 µg/mL
same,MIC80,[6],> 40 µg/mL
same,fractional inhibitory concentration index (FICI),[7],0.01
same,Activity,[8],inactive
same,Activity,[9],Toxic
same,MIC80,[10],> 40 µg/mL
same,MIC80,[11],1.12 µg/mL
same,inhibition,[12],inactive
same,Activity,[13],Active
same,Activity,[14],inactive
same,MIC80,[15],27.8 µg/mL
same,MIC80,[16],5.9 µg/mL
same,Activity,[17],inactive
same,inhibition,[18],inactive
same,MIC80,[19],1.35 µg/mL
same,fractional inhibitory concentration index (FICI),[20],0.03
same,MIC80,[21],> 40 µg/mL
same,Activity,[22],inactive
same,Activity,[23],inactive
same,MIC80,[24],> 40 µg/mL
same,fractional inhibitory concentration index (FICI),[25],0.03
same,inhibition,[26],Active
same,inhibition,[27],inactive
same,fractional inhibitory concentration index (FICI),[28],0.02
same,fractional inhibitory concentration index (FICI),[29],0.14
same,inhibition,[30],inactive
same,MIC80,[31],1.2 µg/mL
same,fractional inhibitory concentration index (FICI),[32],0.03
same,MIC80,[33],5.67 µg/mL
same,MIC80,[34],5.58 µg/mL
same,fractional inhibitory concentration index (FICI),[35],0.21
same,MIC80,[36],0.54 µg/mL
same,fractional inhibitory concentration index (FICI),[37],0.02
same,Activity,[38],Active
same,Activity,[39],Dose-Dependent Effect

# Source: ChEMBL document CHEMBL5625249, “Optimization and antifungal activity of quinoline derivatives linked to chalcone moiety combined with FLC against Candida albicans” (Eur J Med Chem, 2023)
